Consider 25 compounds from patent publication US9896418B2, “Aryl ethers and uses thereof” (Peloton Therapeutics, Inc., priority 2013, dated 2018).

pIC50: −log10 of the molar value. Some results are limits rather than exact numbers.

The test system of the assay is HIF-2α HIS TAG-PASB Domain. Kind of assay: HIF-2α Scintillation Proximity Assay (SPA). The class given is binding. The protocol: The percent inhibition was determined and IC50 values were calculated using the Dotmatics system based on the following equation: % inhibition=[(high control−sample)/(high control−low control)]×100.
For orientation: pIC50 means −log10 of the IC50, conventionally taken in molar units. Higher therefore signals a low IC50. `O=S(=O)(c1ccc(Oc2cc(F)cc(F)c2)c2c1[C@H](O)CC2)C(F)(F)F` [Example 55, (R)-4-(3,5-Difluorophenoxy)-7-((trifluoromethyl)sulfonyl)-2,3-dihydro-1H-inden-1-ol] had a pIC50 of more than 8.30. To `O[C@@H]1CCc2c(Oc3cc(F)cc(F)c3)ccc(C(F)(F)F)c21` [Example 58, (R)-4-(3,5-Difluorophenoxy)-7-(trifluoromethyl)-2,3-dihydro-1H-inden-1-ol] belongs more than 8.30. With `CS(=O)(=O)c1ccc(Oc2cncc(Cl)c2)c2c1[C@H](O)C(F)(F)C2` [Example 115, (S)-4-((5-Chloropyridin-3-yl)oxy)-2,2-difluoro-7-(methylsulfonyl)-2,3-dihydro-1H-inden-1-ol] the figure was 6.46; with `CS(=O)(=O)c1ccc(Oc2cc(F)cc(Cl)c2)c2c1[C@H](O)C(F)(F)C2` [Example 160, (1S)-4-(3-Chloro-5-fluoro-phenoxy)-2,2-difluoro-7-methylsulfonyl-indan-1-ol], more than 8.30. With `N#Cc1cc(F)cc(Oc2ccc(S(=O)(=O)C(F)(F)F)c3c2CC(F)(F)[C@H]3O)c1` [Example 185, (S)-3-((2,2-Difluoro-1-hydroxy-7-((trifluoromethyl)sulfonyl)-2,3-dihydro-1H-inden-4-yl)oxy)-5-fluorobenzonitrile] the figure was more than 8.30. In the case of `O=S(=O)(c1ccc(Oc2cncc(Cl)c2)c2c1[C@H](O)C(F)(F)C2)C(F)(F)F` [Example 186, (S)-4-((5-Chloropyridin-3-yl)oxy)-2,2-difluoro-7-((trifluoromethyl)sulfonyl)-2,3-dihydro-1H-inden-1-ol], the pIC50 was more than 8.30. `O=S(=O)(CF)c1ccc(Oc2cncc(Cl)c2)c2c1[C@H](O)C(F)(F)C2` [Example 187, (S)-4-((5-Chloropyridin-3-yl)oxy)-2,2-difluoro-7-((fluoromethyl)sulfonyl)-2,3-dihydro-1H-inden-1-ol]: the pIC50 is 7.10.

The compound `CS(=O)(=NC#N)c1ccc(Oc2cc(F)cc(F)c2)c2c1C(O)C(F)(F)C2` (stereo not shown) [Example 191, N-((7-(3,5-difluorophenoxy)-2,2-difluoro-3-hydroxy-2,3-dihydro-1H-inden-4-yl)(methyl)(oxo)-λ^6-sulfanylidene)cyanamide] gave a pIC50 of more than 8.30. To `CS(=N)(=O)c1ccc(Oc2cc(F)cc(F)c2)c2c1[C@H](O)C(F)(F)C2` (stereo partly drawn) [Example 192, ((S)-7-(3,5-Difluorophenoxy)-2,2-difluoro-3-hydroxy-2,3-dihydro-1H-inden-4-yl)(imino)(methyl)-λ^6-sulfanone] belongs 6.74; to `O=S(=O)(c1ccc(Oc2ccc(F)c(Cl)c2)c2c1[C@H](O)C(F)(F)C2)C(F)(F)F` [Example 221, (S)-4-(3-Chloro-4-fluorophenoxy)-2,2-difluoro-7-((trifluoromethyl)sulfonyl)-2,3-dihydro-1H-inden-1-ol], 7.54; to `N#Cc1cncc(Oc2ccc(S(=O)(=O)C(F)(F)F)c3c2C[C@@H](F)[C@H]3O)c1` [Example 225, 5-(((1S,2R)-2-Fluoro-1-hydroxy-7-((trifluoromethyl)sulfonyl)-2,3-dihydro-1H-inden-4-yl)oxy)nicotinonitrile], more than 8.30. The compound `N#Cc1cc(Oc2ccc(S(=O)(=O)C(F)(F)F)c3c2CC(F)(F)[C@H]3O)ccc1F` [Example 228, (S)-5-((2,2-Difluoro-1-hydroxy-7-((trifluoromethyl)sulfonyl)-2,3-dihydro-1H-inden-4-yl)oxy)-2-fluorobenzonitrile] gave a pIC50 of 7.40. `O=S(=O)(c1ccc(Oc2ccc(F)cc2)c2c1[C@H](O)C(F)(F)C2)C(F)(F)F` [Example 230, (S)-2,2-Difluoro-4-(4-fluorophenoxy)-7-((trifluoromethyl)sulfonyl)-2,3-dihydro-1H-inden-1-ol] gave a pIC50 of 7.55. With `O=S(=O)(c1ccc(Oc2ccc(F)c(F)c2)c2c1[C@H](O)C(F)(F)C2)C(F)(F)F` [Example 233, (S)-4-(3,4-Difluorophenoxy)-2,2-difluoro-7-((trifluoromethyl)sulfonyl)-2,3-dihydro-1H-inden-1-ol] the figure was more than 8.30; with `N#Cc1cccc(Oc2ccc(S(=O)(=O)C(F)F)c3c2CC(F)(F)[C@H]3O)c1` [Example 236, (S)-3-((7-((difluoromethyl)sulfonyl)-2,2-difluoro-1-hydroxy-2,3-dihydro-1H-inden-4-yl)oxy)benzonitrile], more than 8.30; with `CS(=O)(=NC#N)c1ccc(Oc2cc(F)cc(C#N)c2)c2c1[C@H](O)C(F)(F)C2` (stereo partly shown) [Example 240], 7.59. To `O=S(=O)(c1ccc(Oc2cc(Cl)c[n+]([O-])c2)c2c1[C@H](O)C(F)(F)C2)C(F)(F)F` [Example 260, (S)-3-Chloro-5-((2,2-difluoro-1-hydroxy-7-((trifluoromethyl)sulfonyl)-2,3-dihydro-1H-inden-4-yl)oxy)pyridine 1-oxide] belongs 7.18; to `N#Cc1cc(Oc2ccc(S(=O)(=O)C(F)(F)F)c3c2CC(F)(F)[C@H]3O)c[n+]([O-])c1` [Example 267, (S)-3-cyano-5-((2,2-difluoro-1-hydroxy-7-((trifluoromethyl)sulfonyl)-2,3-dihydro-1H-inden-4-yl)oxy)pyridine 1-oxide], 7.04; to `CS(=O)(=O)c1ccc(Oc2cc(F)cc(C#N)c2)c2c1[C@H](O)C(F)(Cl)C2` (stereo partly drawn) [Example 270, 3-(((1S)-2-chloro-2-fluoro-1-hydroxy-7-(methylsulfonyl)-2,3-dihydro-1H-inden-4-yl)oxy)-5-fluorobenzonitrile], 7.01. Compound `CS(=O)(=O)c1ccc(Oc2cc(F)cc(C#N)c2)c2c1[C@H](O)C(F)(F)[C@@H]2F` [Example 292, 3-fluoro-5-[(1S,3R)-2,2,3-trifluoro-1-hydroxy-7-methylsulfonyl-indan-4-yl]oxy-benzonitrile] gave a pIC50 of more than 8.30. Regarding `CS(=O)(=NC#N)c1ccc(Oc2cc(F)cc(C#N)c2)c2c1[C@H](O)[C@H](F)C2` (stereo partly drawn) [Example 302, N-(((2R,3S)-7-(3-cyano-5-fluorophenoxy)-2-fluoro-3-hydroxy-2,3-dihydro-1H-inden-4-yl)(methyl)(oxo)-λ^6-sulfanylidene)cyanamide], the pIC50 is 7.20. In turn, `N#Cc1cncc(Oc2ccc(C(F)(F)F)c3c2CC(F)(F)[C@H]3O)c1` [Example 303, 5-[(1S)-2,2-difluoro-1-hydroxy-7-(trifluoromethyl)indan-4-yl]oxypyridine-3-carbonitrile] had a pIC50 of 7.43.

`CS(=O)(=O)c1ccc(Oc2cc(F)cc(Br)c2)c2c1[C@H](O)C(F)(F)C2` [Example 304, (S)-4-(3-bromo-5-fluorophenoxy)-2,2-difluoro-7-(methylsulfonyl)-2,3-dihydro-1H-inden-1-ol] showed a pIC50 of more than 8.30. With `O=S(=O)(c1ccc(Oc2cncc(F)c2)c2c1[C@H](O)C(F)(F)C2)C(F)(F)F` [Example 309, (S)-2,2-difluoro-4-((5-fluoropyridin-3-yl)oxy)-7-((trifluoromethyl)sulfonyl)-2,3-dihydro-1H-inden-1-ol], the pIC50 is more than 8.30.

Take `O=S(=O)(c1ccc(Oc2cc(F)c[n+]([O-])c2)c2c1[C@H](O)C(F)(F)C2)C(F)(F)F` [Example 310, (S)-3-((2,2-difluoro-1-hydroxy-7-((trifluoromethyl)sulfonyl)-2,3-dihydro-1H-inden-4-yl)oxonio)-5-fluoropyridine 1-oxide]: the pIC50 is 7.80.
